Activity calls are given as the source filed them.
How the values were obtained:
[1] = target: UDP-galactopyranose mutase (Mycobacterium tuberculosis, UniProt P9WIQ1); assay: Inhibitors of Mycobacterium tuberculosis UDP-galactopyranose mutase (UGM) enzyme Measured in Biochemical System Using Plate Reader - 2105-02_Inhibitor_Dose_CherryPick_Activity. [Related pubchem assays (depositor defined):AID504439]
[2] = target: T1, Histone-lysine N-methyltransferase NSD2 (Homo sapiens, UniProt O96028); format: biochemical
T1 sequence (O96028 whole entry): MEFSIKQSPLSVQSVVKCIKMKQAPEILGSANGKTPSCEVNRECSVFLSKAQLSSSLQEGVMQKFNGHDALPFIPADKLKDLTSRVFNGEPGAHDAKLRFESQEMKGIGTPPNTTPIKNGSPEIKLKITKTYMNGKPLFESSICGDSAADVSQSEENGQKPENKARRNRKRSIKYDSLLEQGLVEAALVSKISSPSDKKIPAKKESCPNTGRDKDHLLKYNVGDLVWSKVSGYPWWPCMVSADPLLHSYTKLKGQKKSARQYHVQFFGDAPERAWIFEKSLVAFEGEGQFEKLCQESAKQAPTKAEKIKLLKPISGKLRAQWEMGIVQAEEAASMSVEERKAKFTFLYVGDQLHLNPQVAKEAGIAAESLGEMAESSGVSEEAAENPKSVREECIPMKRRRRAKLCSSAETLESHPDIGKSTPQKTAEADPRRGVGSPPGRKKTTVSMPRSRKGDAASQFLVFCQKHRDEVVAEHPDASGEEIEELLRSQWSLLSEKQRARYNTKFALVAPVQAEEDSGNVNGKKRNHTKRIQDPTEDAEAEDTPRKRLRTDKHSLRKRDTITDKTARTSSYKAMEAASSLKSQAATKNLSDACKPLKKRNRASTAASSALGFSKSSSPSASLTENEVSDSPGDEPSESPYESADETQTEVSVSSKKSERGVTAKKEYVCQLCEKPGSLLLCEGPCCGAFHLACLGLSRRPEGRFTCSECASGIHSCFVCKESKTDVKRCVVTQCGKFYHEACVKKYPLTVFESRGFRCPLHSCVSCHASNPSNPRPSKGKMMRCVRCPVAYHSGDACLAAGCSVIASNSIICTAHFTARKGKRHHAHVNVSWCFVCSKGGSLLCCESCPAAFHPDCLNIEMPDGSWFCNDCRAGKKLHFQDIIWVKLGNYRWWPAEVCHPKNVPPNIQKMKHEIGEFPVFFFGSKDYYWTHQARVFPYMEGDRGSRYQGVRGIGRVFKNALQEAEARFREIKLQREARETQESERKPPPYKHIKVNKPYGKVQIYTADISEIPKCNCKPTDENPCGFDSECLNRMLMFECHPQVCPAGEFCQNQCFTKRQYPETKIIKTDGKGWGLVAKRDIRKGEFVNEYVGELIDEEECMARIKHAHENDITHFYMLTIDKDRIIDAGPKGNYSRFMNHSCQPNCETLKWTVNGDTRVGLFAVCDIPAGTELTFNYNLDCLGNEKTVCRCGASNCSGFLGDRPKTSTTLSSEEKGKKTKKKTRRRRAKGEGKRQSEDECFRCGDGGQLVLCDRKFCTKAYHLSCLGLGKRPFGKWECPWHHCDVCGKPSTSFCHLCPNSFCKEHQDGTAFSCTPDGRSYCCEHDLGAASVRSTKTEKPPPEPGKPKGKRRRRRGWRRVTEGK

[3] = target: T2, Tyrosine-protein phosphatase non-receptor type 7 (Homo sapiens, UniProt P35236); format: functional
T2 sequence (P35236 whole entry): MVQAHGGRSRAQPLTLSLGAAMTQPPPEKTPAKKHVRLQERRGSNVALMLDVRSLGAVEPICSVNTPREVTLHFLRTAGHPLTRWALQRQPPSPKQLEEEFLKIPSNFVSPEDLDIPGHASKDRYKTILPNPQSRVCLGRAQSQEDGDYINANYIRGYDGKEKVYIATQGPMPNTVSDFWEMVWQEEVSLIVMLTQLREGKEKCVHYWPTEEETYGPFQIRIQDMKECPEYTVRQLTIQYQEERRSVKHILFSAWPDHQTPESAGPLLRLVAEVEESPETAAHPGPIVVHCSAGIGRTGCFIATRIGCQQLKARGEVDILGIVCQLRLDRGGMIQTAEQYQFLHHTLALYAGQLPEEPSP

[4] = target: T3, Tyrosine-protein phosphatase non-receptor type 22 (Homo sapiens, UniProt Q9Y2R2); format: functional
T3 sequence (Q9Y2R2 whole entry): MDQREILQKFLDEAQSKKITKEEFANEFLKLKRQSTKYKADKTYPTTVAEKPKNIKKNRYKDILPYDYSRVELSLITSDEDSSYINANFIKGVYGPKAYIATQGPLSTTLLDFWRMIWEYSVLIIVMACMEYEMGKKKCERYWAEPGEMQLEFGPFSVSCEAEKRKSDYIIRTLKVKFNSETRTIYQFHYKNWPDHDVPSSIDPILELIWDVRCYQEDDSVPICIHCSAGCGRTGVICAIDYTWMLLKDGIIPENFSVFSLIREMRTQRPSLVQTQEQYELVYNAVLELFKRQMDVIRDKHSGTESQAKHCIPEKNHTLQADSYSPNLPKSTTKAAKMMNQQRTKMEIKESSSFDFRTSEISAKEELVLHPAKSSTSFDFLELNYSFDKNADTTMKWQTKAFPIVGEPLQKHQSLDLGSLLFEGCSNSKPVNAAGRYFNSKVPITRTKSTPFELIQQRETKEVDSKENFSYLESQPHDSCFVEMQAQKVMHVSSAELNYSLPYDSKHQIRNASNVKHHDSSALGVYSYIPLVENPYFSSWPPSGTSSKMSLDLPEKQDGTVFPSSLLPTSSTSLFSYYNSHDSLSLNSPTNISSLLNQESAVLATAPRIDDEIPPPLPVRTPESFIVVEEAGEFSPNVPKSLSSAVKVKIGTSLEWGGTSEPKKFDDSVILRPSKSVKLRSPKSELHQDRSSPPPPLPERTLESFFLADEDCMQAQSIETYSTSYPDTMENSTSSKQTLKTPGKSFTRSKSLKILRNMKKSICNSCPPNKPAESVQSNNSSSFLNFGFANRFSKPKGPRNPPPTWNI

[5] = target: T3, Tyrosine-protein phosphatase non-receptor type 22; format: functional; remark: listed apart in the source
[6] = HEp-2 cell cytotoxicity, dose response, cytotoxicity control for RSV inhibitor project, HTS (AID 2410); format: functional; settings: human respiratory syncytial virus
[7] = insulin promoter down-regulators in MIN6 cells, imaging, high-content screening, mouse beta cells (AID 1628); format: functional
[8] = cytotoxicity in MIN6 insulinoma cells, dose response, cytotoxicity control, cell-based, mouse insulinoma (AID 2122); format: functional;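 also: confirmatory high-throughput counterscreen run to flag cytotoxic compounds; mouse MIN-6 beta cells carrying an insulin promoter eGFP reporter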
[9] = target: Induced myeloid leukemia cell differentiation protein Mcl-1 (Homo sapiens, UniProt Q07820); format: functional
[10] = target: T4, Endoribonuclease toxin MazF (Escherichia coli K-12, UniProt P0AE70); assay: MazF toxin RNase activators, dose response, biochemical, fluorescence, single-stranded RNA substrate, uHTS hits (AID 588481); format: functional
T4 sequence (P0AE70 whole entry): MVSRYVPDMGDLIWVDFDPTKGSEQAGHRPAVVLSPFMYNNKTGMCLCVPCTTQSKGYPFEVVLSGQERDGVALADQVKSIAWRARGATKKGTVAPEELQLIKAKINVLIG

[11] = target: T4, Endoribonuclease toxin MazF; assay: fluorescent RNA oligo signal without MazF, dose response, counter-screen for MazEF activator project, biochemical, fluorescence, single-stranded RNase substrate (AID 588502); format: functional
[12] = target: T5, Rac GTPase-activating protein 1 (Homo sapiens, UniProt Q9H0H5); assay: MgcRacGAP GTPase-activating activity inhibitors, confirmation, biochemical, ADP Hunter fluorescence, primary and confirmatory (AID 624330); format: functional
T5 sequence (Q9H0H5 whole entry): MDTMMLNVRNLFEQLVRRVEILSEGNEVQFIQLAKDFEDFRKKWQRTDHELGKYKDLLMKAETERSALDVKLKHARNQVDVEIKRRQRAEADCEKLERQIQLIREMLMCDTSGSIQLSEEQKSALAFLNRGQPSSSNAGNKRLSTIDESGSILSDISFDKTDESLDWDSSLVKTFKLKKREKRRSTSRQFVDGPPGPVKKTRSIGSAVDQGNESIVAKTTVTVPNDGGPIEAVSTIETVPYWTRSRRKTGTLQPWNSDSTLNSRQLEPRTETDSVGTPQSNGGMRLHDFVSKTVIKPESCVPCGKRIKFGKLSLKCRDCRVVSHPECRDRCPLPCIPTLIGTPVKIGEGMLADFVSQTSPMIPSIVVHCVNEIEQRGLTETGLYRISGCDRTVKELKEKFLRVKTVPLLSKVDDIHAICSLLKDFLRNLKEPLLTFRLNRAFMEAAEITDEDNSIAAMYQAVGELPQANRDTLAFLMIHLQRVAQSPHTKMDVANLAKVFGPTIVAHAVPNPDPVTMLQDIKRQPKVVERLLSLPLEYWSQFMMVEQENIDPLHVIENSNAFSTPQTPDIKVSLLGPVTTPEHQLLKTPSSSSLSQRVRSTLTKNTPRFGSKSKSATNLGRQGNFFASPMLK

[13] = target: Sphingosine 1-phosphate receptor 5 (Homo sapiens, UniProt Q9H228); assay: Late stage counterscreen assay for S1P4 antagonists: Fluorescence dose response cell-based screening assay for antagonists of the Sphingosine 1-Phosphate Receptor 5 (S1P5). [Related pubchem assays (depositor defined):AID1510, AID1524, AID1692, AID1853, AID2332, AID489009, AID489017]; format: functional
[14] = target: Sphingosine 1-phosphate receptor 3 (Homo sapiens, UniProt Q99500); assay: Late stage counterscreen assay for S1P4 antagonists: Fluorescence dose response cell-based screening assay for antagonists of the Sphingosine 1-Phosphate Receptor 3 (S1P3). [Related pubchem assays (depositor defined):AID1510, AID1524, AID1692, AID1853, AID2332, AID489009, AID489017]; format: functional
[15] = target: Sphingosine 1-phosphate receptor 1 (Homo sapiens, UniProt P21453); assay: Late stage counterscreen assay for S1P4 antagonists: Fluorescence dose response cell-based screening assay for antagonists of the Sphingosine 1-Phosphate Receptor 1 (S1P1). [Related pubchem assays (depositor defined):AID1510, AID1524, AID1692, AID1853, AID2332, AID489009, AID489017]; format: functional
[16] = target: Sphingosine 1-phosphate receptor 2 (Homo sapiens, UniProt O95136); assay: Late stage counterscreen assay for S1P4 antagonists: Fluorescence dose response cell-based screening assay for antagonists of the Sphingosine 1-Phosphate Receptor 2 (S1P2). [Related pubchem assays (depositor defined):AID1510, AID1524, AID1692, AID1853, AID2332, AID489009, AID489017]; format: functional
Chain of Sphingosine 1-phosphate receptor 2 (O95136 whole entry): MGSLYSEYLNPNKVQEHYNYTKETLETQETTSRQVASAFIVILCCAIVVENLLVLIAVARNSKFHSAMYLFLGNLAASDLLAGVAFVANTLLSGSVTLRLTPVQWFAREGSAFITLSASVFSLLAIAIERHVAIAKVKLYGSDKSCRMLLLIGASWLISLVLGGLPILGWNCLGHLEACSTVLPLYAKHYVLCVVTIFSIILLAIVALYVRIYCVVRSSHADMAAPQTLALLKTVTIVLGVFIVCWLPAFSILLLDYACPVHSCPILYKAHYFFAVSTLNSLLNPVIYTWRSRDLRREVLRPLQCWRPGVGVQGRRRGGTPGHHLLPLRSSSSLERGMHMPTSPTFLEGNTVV

Chain of Sphingosine 1-phosphate receptor 3 (Q99500 whole entry): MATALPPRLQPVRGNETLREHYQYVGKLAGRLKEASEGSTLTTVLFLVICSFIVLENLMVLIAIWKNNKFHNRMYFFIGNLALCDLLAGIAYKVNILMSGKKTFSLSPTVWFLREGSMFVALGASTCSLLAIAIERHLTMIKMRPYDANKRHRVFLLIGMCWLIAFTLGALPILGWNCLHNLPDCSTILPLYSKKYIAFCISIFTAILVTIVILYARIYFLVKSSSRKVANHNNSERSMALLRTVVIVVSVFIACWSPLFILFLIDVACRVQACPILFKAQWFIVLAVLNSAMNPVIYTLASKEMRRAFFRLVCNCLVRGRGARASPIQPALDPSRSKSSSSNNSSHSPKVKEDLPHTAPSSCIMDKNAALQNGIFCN
Chain of Sphingosine 1-phosphate receptor 1 (P21453 whole entry): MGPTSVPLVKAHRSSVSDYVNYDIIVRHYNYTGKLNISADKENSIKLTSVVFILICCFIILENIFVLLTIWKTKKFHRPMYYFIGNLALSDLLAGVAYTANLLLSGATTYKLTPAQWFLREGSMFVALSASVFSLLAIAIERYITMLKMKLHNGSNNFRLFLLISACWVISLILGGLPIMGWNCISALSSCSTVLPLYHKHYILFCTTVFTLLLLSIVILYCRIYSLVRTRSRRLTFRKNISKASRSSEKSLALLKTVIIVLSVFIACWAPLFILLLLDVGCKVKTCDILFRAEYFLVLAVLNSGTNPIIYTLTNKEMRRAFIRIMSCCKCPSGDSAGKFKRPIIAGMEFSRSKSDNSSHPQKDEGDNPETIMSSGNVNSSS
Chain of UDP-galactopyranose mutase (P9WIQ1 whole entry): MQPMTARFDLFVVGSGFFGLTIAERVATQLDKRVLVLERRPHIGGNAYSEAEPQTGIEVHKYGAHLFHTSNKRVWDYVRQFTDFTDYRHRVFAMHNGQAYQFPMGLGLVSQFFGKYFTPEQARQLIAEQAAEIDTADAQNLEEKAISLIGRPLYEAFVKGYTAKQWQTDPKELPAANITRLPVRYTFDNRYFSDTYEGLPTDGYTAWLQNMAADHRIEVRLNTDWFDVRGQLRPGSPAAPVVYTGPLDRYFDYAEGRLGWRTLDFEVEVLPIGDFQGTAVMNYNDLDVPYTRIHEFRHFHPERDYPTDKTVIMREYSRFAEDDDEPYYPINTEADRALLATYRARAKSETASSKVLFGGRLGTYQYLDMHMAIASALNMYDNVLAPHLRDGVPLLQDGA
Chain of Induced myeloid leukemia cell differentiation protein Mcl-1 (Q07820 whole entry): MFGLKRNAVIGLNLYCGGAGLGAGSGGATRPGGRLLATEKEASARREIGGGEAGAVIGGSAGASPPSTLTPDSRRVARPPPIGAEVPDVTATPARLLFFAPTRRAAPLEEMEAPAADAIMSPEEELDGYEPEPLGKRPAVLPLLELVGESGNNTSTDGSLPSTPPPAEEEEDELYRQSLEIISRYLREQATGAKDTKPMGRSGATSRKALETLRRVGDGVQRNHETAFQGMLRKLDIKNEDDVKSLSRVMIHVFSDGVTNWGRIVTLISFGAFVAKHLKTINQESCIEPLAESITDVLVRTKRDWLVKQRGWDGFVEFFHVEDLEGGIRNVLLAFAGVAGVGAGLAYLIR
Chain of Sphingosine 1-phosphate receptor 5 (Q9H228 whole entry): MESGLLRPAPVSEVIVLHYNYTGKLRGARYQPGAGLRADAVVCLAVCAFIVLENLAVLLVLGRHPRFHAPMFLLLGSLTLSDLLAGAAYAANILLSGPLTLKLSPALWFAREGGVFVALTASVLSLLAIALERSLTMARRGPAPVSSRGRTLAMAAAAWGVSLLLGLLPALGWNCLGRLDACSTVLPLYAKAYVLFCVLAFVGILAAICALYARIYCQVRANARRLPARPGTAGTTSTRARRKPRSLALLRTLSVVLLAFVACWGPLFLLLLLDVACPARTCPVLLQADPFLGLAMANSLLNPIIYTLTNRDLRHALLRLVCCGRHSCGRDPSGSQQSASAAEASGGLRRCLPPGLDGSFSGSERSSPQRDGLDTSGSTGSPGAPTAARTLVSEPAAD

SMILES: COc1ccc(-n2c(C)ccc2-c2ccccc2)cn1
- AC50 [1]: 58 µM (active)
- AC50 [2]: > 20 µM (inactive)

SMILES: COc1ccc(OC(C)C(=O)N2CC(C)OC(C)C2)cc1 (stereo unspecified)
- IC50 [3]: > 79.4 µM (inactive)
- IC50 [4]: > 79.4 µM (inactive)
- IC50 [5]: > 79.4 µM (inactive)

SMILES: O=c1oc2ccccc2cc1-c1csc(Nc2ccc(O)cc2)n1
- CC50 [6]: > 50 µM (active)
- IC50 [7]: 2.81 µM (active)
- IC50 [8]: 4.07 µM (active)
- IC50 [9]: 2.76 µM (active)
- EC50 [10]: > 99 µM (inactive)
- EC50 [11]: > 99 µM (inactive)
- IC50 [12]: 70.1 µM (active)

SMILES: Cc1cccc(C)c1NC(=O)c1ccc(-c2cc(F)ccc2F)o1
- IC50 [13]: > 25 µM (inactive)
- IC50 [14]: > 25 µM (inactive)
- IC50 [15]: > 25 µM (inactive)
- IC50 [16]: 16.9 µM (inactive)
